Marks after values point to notes of the source that are not given here.
Tests used:
[1] = tested on: tail flick response in mice after immersion in 55° C. water bath; assay: Tail-flick test; assay type: in vivo
Description: (§1) Experiments in mice were performed on C57BL/6 male mice (Janvier, Le-Genest-St-Isle, France) weighting 26-35 g, housed in individual cages with food and water ad libitum and kept in a 12 hours/12 hours light-dark cycle. All animal experimentations were carried out in accordance with the rules of the European Committee Council Directive of Nov. 24, 1986 (86/609/EEC) and all procedures were approved by the local department of the veterinarian services for the use and care of animals (agreement #380612). All efforts were made to minimize animal suffering and reduce the number of animals used in each series of experiments.
The tail-flick test was carried out according to the method described by D'Amour and Smith. This involved immersing extreme 3 cm of the mice's tail in water bath containing water at a temperature of 55±0.5° C. […] The reaction time was recorded with a stopwatch. […] The reaction time of mice was taken at intervals of 15, 30 and 60 min after a latency period of 1 hour following the administration of the decoction and drugs.
(§2) The protection percentage was calculated as the ratio (reaction time following tramadol administration−initial reaction time): initial reaction time.

[2] = tested on: hotplate-induced pain in mice; assay: Hotplate test; assay type: in vivo
Description: as §1
The apparatus consisted of a water bath in which was placed a metallic cylinder (14 cm diameter×10 cm height). The hot plate was maintained at 55±0.5° C. Each mouse (six per group) acted as its own control. One hour before treatment, the reaction time of each mouse (liking of the forepaws or jumping response) was measured twice with a 10 min interval. The average of the two readings was obtained as the initial reaction time.
as §2

[3] = tested on: glutamate-induced nociception in mice; assay: Glutamate-induced nociception; assay type: in vivo
Description: as §1
Animals were treated with the purified tramadol isolated from Nauclea Latifolia (8, 16 or 32 mg/kg, p.o.), dipyrone (60 mg/kg, p.o.) or 0.9% NaCl (p.o.) 1 hour before test. A volume of 20 μl of glutamate (30 μmol/paw) was injected intraplantarly in the ventral surface of the right hind paw. Animals were observed individually for 15 min following glutamate injection. The amount of time they spent licking the injected paw was recorded with a chronometer and was considered as indicative of nociception. Data were analyzed by two-way Anova followed by Tukey's (HSD) multi-comparison test.

[4] = tested on: acetic acid-induced abdominal constrictions in mice; assay: Acetic acid induced abdominal constriction (writhing) test; assay type: in vivo
Description: as §1
One hour after oral administration of these substances, each animal was injected i.p. with 0.6% acetic acid in a volume of 10 ml/kg body weight. After acetic acid injection, the number of stretching or writhing responses per animal was recorded during 30 min after a latency period of 5 min. Inhibition was expressed in percentage.
Data were analyzed by two-way Anova followed by Tukey's (HSD) multi-comparison test.

formalin-induced pain = assay: Formaline-induced nociception (formalin test); assay type: in vivo, mice; conditions: 32 mg/kg p.o.
Description: as §1
The formalin test was carried out as described by Hunskaar and Hole (1987) with slight modifications. The negative control was treated with 0.9% NaCl. […] Other groups of mice were treated with methanolic fractions of Nauclea Latifolia (16, 40 or 80 mg/kg, p.o.), or purified tramadol isolated from Nauclea Latifolia (8, 16 and 32 mg/kg, p.o.). Pain was induced by injecting 50 μl of 2.5% formalin (40% formaldehyde in distilled water) in the right hind paw pad. […] The amount of time spent licking and biting the injected paw was indicative of pain and was recorded during the first 0-5 min (first phase), followed by the 15-30 min period (second phase). Data were analyzed by two-way Anova followed by Tukey's (HSD) multi-comparison test.

Question: Which results are given for CN1CC[C@]23c4c5ccc(O)c4O[C@H]2[C@@H](O)C=C[C@H]3[C@H]1C5 [Morphine, reference compound]?
Answer: Protection agains thermal nociception (%) ([1]; 5 mg/kg s.c., 15 min): 27.3%; Protection agains thermal nociception (%) ([1]; 5 mg/kg s.c., 30 min): 62.1*** %; Protection agains thermal nociception (%) ([1]; 5 mg/kg s.c., 60 min): 77.8*** %; Protection against thermal nociception (%) ([2]; 5 mg/kg s.c., 0.5 hr): 7.4%; Protection against thermal nociception (%) ([2]; 5 mg/kg s.c., 1 hr): 44.4** %; Protection against thermal nociception (%) ([2]; 5 mg/kg s.c., 2 hrs): 46.8** %; Protection against thermal nociception (%) ([2]; 5 mg/kg s.c., 3 hrs): 40.4** %; Protection against thermal nociception (%) ([2]; 5 mg/kg s.c., 4 hrs): 43.6** %; Protection against thermal nociception (%) ([2]; 5 mg/kg s.c., 5 hrs): 24.6* %; Protection against thermal nociception (%) ([2]; 5 mg/kg s.c., 6 hrs): 17.1%

Question: Cc1c(N(C)CS(=O)(=O)[O-])c(=O)n(-c2ccccc2)n1C.[Na+] [dipyrone, reference compound] was tested. Which “inhibition of glutamate-induced nociception” value ([3]; dipyrone (60 mg/kg, p.o.)) did it give?
Answer: 70.30%

Question: CC(=O)Oc1ccccc1C(=O)O [Aspirin, reference compound] was tested. Which “Acetic acid-induced writhing inhibition (%)” value ([4]; 150 mg/kg p.o.) did it give?
Answer: 52.9%

Question: What about the “Protection agains thermal nociception (%)” value ([1]; 150 mg/kg p.o., 15 min) of the same compound?
Answer: 6.4%

Question: And the “Protection agains thermal nociception (%)” value ([1]; 150 mg/kg p.o., 30 min)?
Answer: 9.5%

Question: And the “Protection agains thermal nociception (%)” value ([1]; 150 mg/kg p.o., 60 min)?
Answer: 7.1%

Question: And the “Protection against thermal nociception (%)” value ([2]; 150 mg/kg p.o., 0.5 hr)?
Answer: 1.7%

Question: And the “Protection against thermal nociception (%)” value ([2]; 150 mg/kg p.o., 1 hr)?
Answer: 35.5* %

Question: What about the “Protection against thermal nociception (%)” value ([2]; 150 mg/kg p.o., 2 hrs) of the same compound?
Answer: 2.2* %

Question: And the “Protection against thermal nociception (%)” value ([2]; 150 mg/kg p.o., 3 hrs)?
Answer: 39.5* %

Question: And the “Protection against thermal nociception (%)” value ([2]; 150 mg/kg p.o., 4 hrs)?
Answer: 8.5%

Question: And the “Protection against thermal nociception (%)” value ([2]; 150 mg/kg p.o., 5 hrs)?
Answer: 10.6%

Question: What about the “Protection against thermal nociception (%)” value ([2]; 150 mg/kg p.o., 6 hrs) of the same compound?
Answer: 3.5%

Question: What does the source list for COc1cccc([C@]2(O)CCCC[C@H]2CN(C)C)c1 (racemic) [F27 of N. latifolia, (±)-cis-2-dimethylaminomethyl-1-(3-methoxyphenyl)cyclohexanol]?
Answer: antinociception in glutamate-induced nociception ([3]; 8, 16 or 32 mg/kg, p.o.): marked and dose-related antinociception; mean ID50 (95% confidence limits), glutamate-induced nociception ([3]; p.o., 1 hour before test): 21.17 (6.49-47.23); counter effect of naloxone on acetic acid-induced writhing ([4]; FIG. 4): absence of counter effect of naloxone; bioactivity of HPLC fractions in the writhing test ([4]; HPLC fractions of root bark extract, writhing test): peak of activity; mean ID50 (95% confidence limits), acetic acid-induced abdominal constrictions ([4]; oral administration): 14.13 (5.53-41.88) mg/kg; blockade of pain emanating from inflammation, second phase (15-30 min) of formalin test (formalin-induced pain): 31.74%; neurogenic-induced pain blockade, first phase (0-5 min) of formalin test (formalin-induced pain): 64.07%; Protection agains thermal nociception (%) ([1]; 8 mg/kg p.o., 15 min): 7.7%; Protection agains thermal nociception (%) ([1]; 8 mg/kg p.o., 30 min): 14.4* %; Protection agains thermal nociception (%) ([1]; 8 mg/kg p.o., 60 min): 21.4* %; Protection agains thermal nociception (%) ([1]; 16 mg/kg p.o., 15 min): 5.6%; Protection agains thermal nociception (%) ([1]; 16 mg/kg p.o., 30 min): 34.3** %; Protection agains thermal nociception (%) ([1]; 16 mg/kg p.o., 60 min): 42.9*** %; reduction of painful sensation due to tail immersion in warm water ([1]; 32 mg/kg oral, after a latency period of 30 min): 63.05%; Protection agains thermal nociception (%) ([1]; 32 mg/kg p.o., 15 min): 18.7%; Protection agains thermal nociception (%) ([1]; 32 mg/kg p.o., 30 min): 63.0*** %; dose dependence of reduction of painful sensation in tail immersion ([1]; mouse, in vivo): dose-dependent; effect of naloxone on analgesic activity in tail-flick test ([1]; mouse, in vivo): blocked by naloxone; Protection against thermal nociception (%) ([2]; 8 mg/kg p.o., 0.5 hr): −2.2%; Protection against thermal nociception (%) ([2]; 8 mg/kg p.o., 1 hr): 22.9%; Protection against thermal nociception (%) ([2]; 8 mg/kg p.o., 2 hrs): 20.2* %; Protection against thermal nociception (%) ([2]; 8 mg/kg p.o., 3 hrs): 50.6** %; Protection against thermal nociception (%) ([2]; 8 mg/kg p.o., 4 hrs): 4.6%; Protection against thermal nociception (%) ([2]; 8 mg/kg p.o., 5 hrs): −0.2%; Protection against thermal nociception (%) ([2]; 8 mg/kg p.o., 6 hrs): −0.5%; Protection against thermal nociception (%) ([2]; 16 mg/kg p.o., 0.5 hr): 1.9%; Protection against thermal nociception (%) ([2]; 16 mg/kg p.o., 1 hr): 27.0* %; Protection against thermal nociception (%) ([2]; 16 mg/kg p.o., 2 hrs): 21.3* %; Protection against thermal nociception (%) ([2]; 16 mg/kg p.o., 3 hrs): 52.4** %; Protection against thermal nociception (%) ([2]; 16 mg/kg p.o., 4 hrs): 6.5%; Protection against thermal nociception (%) ([2]; 16 mg/kg p.o., 5 hrs): −2.0%; Protection against thermal nociception (%) ([2]; 16 mg/kg p.o., 6 hrs): 4.6%; Protection against thermal nociception (%) ([2]; 32 mg/kg p.o., 0.5 hr): 1.9%; Protection against thermal nociception (%) ([2]; 32 mg/kg p.o., 1 hr): 45.2** %; Protection against thermal nociception (%) ([2]; 32 mg/kg p.o., 2 hrs): 50.9** %; Protection against thermal nociception (%) ([2]; 32 mg/kg p.o., 3 hrs): 71.9*** %; Protection against thermal nociception (%) ([2]; 32 mg/kg p.o., 4 hrs): 25.2* %; Protection against thermal nociception (%) ([2]; 32 mg/kg p.o., 5 hrs): 21.3* %; Protection against thermal nociception (%) ([2]; 32 mg/kg p.o., 6 hrs): 27.8* %; time at which increase in latency response reached maximal level ([2]; 32 mg/kg, oral administration): 3 h; effect of naloxone on antinociceptive effect in hot plate assay ([2]; mouse, in vivo): Naloxone antagonized antinociceptive effect

Reference: patent US20160039742A1, “EXTRACTION OF TRAMADOL FROM NAUCLEA LATIFOLIA SMITH” ([…] FOURIER - GRENOBLE 1, priority 2013, published 2016)
